# Patent publication US8912144B2, “Method for treating stroke via administration of NEP1-40 and inosine” (Children's Medical Center Corporation, priority 2003, dated 2014)
# Key:
# Format in all cases: in vivo, rat
# [1] = tested on: sensorimotor cortex infarct; experiment: Lesion size / stroke volume after photothrombotic focal ischemia; details: 4 weeks treatment after focal ischemia
# Procedure: All procedures were carried out in accordance with NIH Guidelines with the approval of Children's Hospital Animal Care and Use Committee. Unilateral in-farcts were induced in the sensorimotor cortex of adult Sprague-Dawley rats (275-300 g; Charles River Laboratories, Wilmington, Mass.) using the photothrombotic model of focal ischemia (Markgraf et al., 1993). Briefly, rats were anesthetized with a combination of ketamine (75 mg/kg) and Domitor (medetomidine; 0.5 mg/kg) and a 15 mm skin incision was made at the midline rostral to the posterior suture. A craniotomy was performed over the sensorimotor cortex using a hand-held drill to open a window that spanned medio-laterally between the sagittal sinus and temporal ridge, and rostro-caudally between Bregma +2.5 mm and Bregma −3.5 mm. […]
# Sections through the telencephalon were cut at 10 μm, mounted on slides, and stained with Crystal Violet to determine the extent of the lesions. […] The area of the injured and uninjured hemisphere of each section was determined using NIH Image-J software. Lesion area was determined by subtracting the area of tissue remaining in the injured hemisphere from that in the uninjured hemisphere in sections spaced 250 μm apart spanning the full rostrocaudal extent of the lesion. […]
# [2] = tested on: corticospinal tract (CST) axons; experiment: BDA tracing of CST axons in sham-operated animals (no brain injury); details: sham surgery, 4 weeks treatment
# Procedure: In groups treated for four weeks after stroke, animals were re-anesthetized, the infusion needle and pump were removed, and a craniotomy was performed over the uninjured SMA. The anterograde tracer bioti-nylated dextran amine (BDA: Molecular Probes: 10% wt/vol in sterile saline) was injected stereotaxically at depths of 0.5, 1.0, and 2.0 mm below the cortical surface at 18 standardized points distributed over the sensorimotor cortex (70 nl per injection; Nano-ject, Drummond Scientific, Broomall, Pa.). Two weeks later, animals were anesthetized and perfused transcardially with 0.9% saline followed by 4% paraformaldehyde. The brain and spinal cord were dissected and post-fixed overnight in 4% paraformaldehyde, followed by 10% and 30% sucrose solutions over the next few days. Tissue was em-bedded in OCT Tissue Tek Medium (Sakura Finetek USA Inc., CA) and frozen on dry ice. […] Six to ten sections spanning a distance of 1.2 mm were examined and quantified for (a) BDA-labeled axon profiles ≧40 μm in length within the dorsal funiculus on the denervated side of the spinal cord (ipsilateral to the BDA injection and contralateral to the injury); (b) BDA+axons≧40 μm in length in the gray matter of the denervated side of the spinal cord, and (c) BDA+axons≧200 μm in length on the denervated side. […] Average numbers of axons were calculated and converted to axons per mm of spinal cord. […]
# [3] = tested on: activated caspase-3; experiment: Activated caspase-3 profiles at the periphery of the stroke; details: standardized area on the periphery of the stroke
# Procedure: A photothrombotic stroke model was used to generate unilateral ischemic lesions centered in the forelimb motor area of the cortex. The infarct area was determined using stereotaxic coordinates and was verified by histological analysis. Lesions were restricted to one hemisphere and included the caudal forelimb area of the primary motor cortex along with varying amounts of adjacent cortex (FIG. 10A and FIGS. 15 and 16). Lesion size varied among animals in each group, but there were no systematic between-group differences (lesion size [in pixels]=85.4±8.2 d [mean±S.E.M] for the saline-treated group and 81.1±8.6 for the inosine-treated group: difference not significant). […] This conclusion is further supported by the absence of any difference between inosine- and saline-treated cases in the number and size of profiles expressing activated caspase-3, as quantified focally in a standardized area on the periphery of the stroke (Caspase-3 profiles in saline-treated group=11.8±1.1, and in inosine treated group=11.9±1.5).
smiles,measurement,setting,value
OC[C@H]1O[C@@H](n2cnc3c(O)ncnc32)[C@H](O)[C@@H]1O [inosine],lesion size (mean±S.E.M),[1],81.1±8.6 pixels
same,labeled CST axons in spinal grey matter ipsilateral to the labeled hemisphere,[2],77.5±9.0 axons/mm
same,Caspase-3 profiles,[3],11.9±1.5
